In one assay the target is IDO1 (Homo sapiens, UniProt P14902). The experiment in a line: IDO1 Cellular Assay in HeLa Cells Stimulated with IFNγ. In kind it is cell-based. As to conditions: about 48 hours, read-out: Hela IC50.
Sequence of IDO1 (P14902 whole entry): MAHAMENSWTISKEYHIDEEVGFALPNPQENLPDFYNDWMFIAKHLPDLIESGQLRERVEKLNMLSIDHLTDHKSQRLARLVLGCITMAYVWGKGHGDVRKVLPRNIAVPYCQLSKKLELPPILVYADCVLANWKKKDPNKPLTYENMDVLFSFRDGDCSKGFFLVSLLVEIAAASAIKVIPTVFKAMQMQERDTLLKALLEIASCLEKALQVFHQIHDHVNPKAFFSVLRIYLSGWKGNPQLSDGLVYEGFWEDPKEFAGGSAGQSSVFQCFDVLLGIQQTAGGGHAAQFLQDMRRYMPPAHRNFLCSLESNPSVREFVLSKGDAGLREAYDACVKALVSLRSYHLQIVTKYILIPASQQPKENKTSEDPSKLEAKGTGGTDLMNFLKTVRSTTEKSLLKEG
One may read the IC50 as the concentration that gives 50% inhibition. For `CC(C)CC(=O)N1CCCc2cc(CNC(=O)c3ccc(Cl)c(F)c3)ccc21` [Example 9, 4-chloro-3-fluoro-N-{[1-(3-methylbutanoyl)-1,2,3,4-tetrahydroquinolin-6-yl]methyl}benzamide], the IC50 came out at 49.3 nM.
As for `C[C@H](C(=O)Nc1ccc(F)cc1)c1ccc2c(c1)CCCN2C(=O)[C@@H]1CCCO1` [Example 84, (2S)-N-(4-fluorophenyl)-2-{1-[(2S)-oxolane-2-carbonyl]-1,2,3,4-tetrahydroquinolin-6-yl]propanamide], the IC50 was found to be 32.3 nM.
In the case of `CC(NC(=O)c1ccc(F)cc1)c1ccc2c(n1)CCCN2C(=O)C1CCOCC1` (stereo in doubt) [Example 146, 4-fluoro-N-{(1R)-1-[5-(oxane-4-carbonyl)-5,6,7,8-tetrahydro-1,5-naphthyridin-2-yl]ethyl}benzamide], the IC50 is 35.5 nM.
`Cc1cc(C(=O)N2CCCc3cc(C(C)C(=O)Nc4ccc(F)cc4)ccc32)no1` (centres unmarked) [Example 46, N-(4-fluorophenyl)-2-[1-(5-methyl-1,2-oxazole-3-carbonyl)-1,2,3,4-tetrahydroquinolin-6-yl]propanamide]: the IC50 worked out at 3.9 nM.
Consider `CC(NC(=O)c1ccc(F)cc1)c1ccc2c(n1)CCCN2C(=O)c1cc(F)ccn1` (centres unmarked) [Example 282, 2-(1-(4-fluorobenzamido)ethyl)-5-(4-fluoropicolinoyl)-5,6,7,8-tetrahydro-1,5-naphthyridin-1-ium 2,2,2-trifluoroacetate], for which the IC50 turned out to be 2.8 nM.
On the same count and under the same terms, the value for `O=C(OC1CC1)N1CCc2nc(C3(C(=O)Nc4ccc(F)cc4)CCC3)ccc21` [Example 269, cyclopropyl 5-(1-((4-fluorophenyl)carbamoyl)cyclobutyl) 2,3-dihydro-1H-pyrrolo[3,2-b]pyridine-1-carboxylate] was 2.2 nM.
As for `C[C@H](C(=O)Nc1ccc(F)cc1)c1ccc2c(c1)CCCN2C(=O)[C@@H]1CCCCO1` (single isomer, unassigned) [Example 88], the IC50 stood at 3.1 nM.
As for `C[C@H](C(=O)Nc1ccc(F)cc1)c1ccc2c(c1)CCCN2C(=O)C1CC(F)(F)C1` [Example 79, (2S)-2-[1-(3,3-difluorocyclobutane-1-carbonyl)-1,2,3,4-tetrahydroquinolin-6-yl]-N-(4-fluorophenyl)propanamide], the IC50 was found to be 34.7 nM.
For the molecule `O=C(c1nnc(C(F)(F)F)[nH]1)N1CCCc2cc(C3(C(=O)Nc4ccc(F)cc4)CCC3)ccc21` [Example 110, N-(4-fluorophenyl)-1-{1-[5-(trifluoromethyl)-4H-1,2,4-triazole-3-carbonyl]-1,2,3,4-tetrahydroquinolin-6-yl}cyclobutane-1-carboxamide], the IC50 is 248 nM.
`C[C@@H](C(=O)Nc1ccc(F)cn1)c1ccc2c(c1)CCCN2C(=O)C1(F)CC1` (single isomer, unassigned) [Example 62]: the IC50 amounted to 524 nM.
Consider `CC(NC(=O)c1ccc(F)cc1)c1ccc2c(n1)CCCN2C(=O)C1COC1` (centres unmarked) [Example 142, 4-fluoro-N-{1-[5-(oxetane-3-carbonyl)-5,6,7,8-tetrahydro-1,5-naphthyridin-2-yl]ethyl}benzamide], for which the IC50 was 1540 nM.
As for `CC(C(=O)Nc1ccc(F)cc1)c1ccc2c(n1)CCCN2C(=O)C1CCCCO1` (centres unmarked) [Example 158, N-(4-fluorophenyl)-2-[5-(oxane-2-carbonyl)-5,6,7,8-tetrahydro-1,5-naphthyridin-2-yl]propanamide], the IC50 is 38.1 nM.
For `CCOC(=O)N1CCCc2cc(C3(C(=O)Nc4ccc(F)cn4)CCC3)ccc21` [Example 211, ethyl 6-{1-[(5-fluoropyridin-2-yl)carbamoyl]-cyclobutyl}-3,4-dihydroquinoline-1(2H)-carboxylate], the IC50 was 2.2 nM.

The same assay, now with this note: read-out: Hela IC50.
Regarding `CC(NC(=O)c1ccc(F)cc1)c1ccc2c(n1)CCCN2c1cc(F)ccn1` (centres unmarked) [Example 380, 4-fluoro-N-(1-(5-(4-fluoropyridin-2-yl)-5,6,7,8-tetrahydro-1,5-naphthyridin-2-yl)ethyl)benzamide], the IC50 came out at 74.5 nM.

The values above are taken from patent US12275729B2 (Merck Sharp & Dohme LLC, priority 2017, dated 2025).
